In the supplement of paper PMC12350171:

Assays:
[1] = system: Com21 synthetic gut community; test: community biomass OD578 after 24 h drug treatment relative to untreated (fraction of untreated control); higher = more community growth; conditions: community: Com21 (Com20 + E. coli ED1a)
Experimental: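 Com21 (Com20 plus E. coli ED1a) was treated with drug for 24 h under anaerobic conditions in mGAM. Community OD578 was then measured and normalised to untreated Com21; mean of 3 biological replicates.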

Streptococcus salivarius = test: IC25 growth inhibition; higher = less potent
How it was run: (§1)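 Under anaerobic conditions, OD578 was read hourly in a plate reader for at least three biological replicates of monocultures grown overnight in mGAM. Each culture started at an OD578 of 0.01 in pre-reduced plates holding twofold drug dilutions and 1% DMSO (or water). IC25 was reported as a tested interval: the lowest concentration where the monotonic median area under the growth curve dropped below the cutoff. That cutoff was 0.75.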

Clostridium ramosum = test: IC25 growth inhibition; higher = less potent
How it was run: as §1

Collinsella aerofaciens = test: IC25 growth inhibition; higher = less potent
How it was run: as §1

Bacteroides uniformis = test: IC25 growth inhibition; higher = less potent
How it was run: as §1

[2] = system: Bacteroides thetaiotaomicron; test: IC25 growth inhibition; higher = less potent
How it was run: as §1

[3] = system: Yersinia pseudotuberculosis; test: IC25 growth inhibition; higher = less potent
How it was run: as §1

Shigella flexneri = test: IC25 growth inhibition; higher = less potent
How it was run: as §1

Escherichia coli ED1a = test: IC25 growth inhibition; higher = less potent
How it was run: as §1

Bacteroides vulgatus = test: IC25 growth inhibition; higher = less potent
How it was run: as §1

[4] = system: Streptococcus parasanguinis; test: IC25 growth inhibition; higher = less potent
How it was run: as §1

Clostridium perfringens = test: IC25 growth inhibition; higher = less potent
How it was run: as §1

[5] = system: Yersinia enterocolitica WA-314; test: IC25 growth inhibition; higher = less potent
How it was run: as §1

Parabacteroides merdae = test: IC25 growth inhibition; higher = less potent
How it was run: as §1

[6] = system: Clostridium saccharolyticum; test: IC25 growth inhibition; higher = less potent
How it was run: as §1

Coprococcus comes = test: IC25 growth inhibition; higher = less potent
How it was run: as §1

Bacteroides fragilis NT = test: IC25 growth inhibition; higher = less potent
How it was run: as §1

Dorea formicigenerans = test: IC25 growth inhibition; higher = less potent
How it was run: as §1

[7] = system: Fusobacterium nucleatum subsp. Nucleatum; test: IC25 growth inhibition; higher = less potent
How it was run: as §1

Ruminococcus gnavus = test: IC25 growth inhibition; higher = less potent
How it was run: as §1

[8] = system: Salmonella enterica typhimurium; test: IC25 growth inhibition; higher = less potent
How it was run: as §1

Eubacterium rectale = test: IC25 growth inhibition; higher = less potent
How it was run: as §1

Clostridium bolteae = test: IC25 growth inhibition; higher = less potent
How it was run: as §1

Roseburia intestinalis = test: IC25 growth inhibition; higher = less potent
How it was run: as §1

Vibrio cholerae = test: IC25 growth inhibition; higher = less potent
How it was run: as §1

[9] = drug pretreatment concentration 10 µM
[10] = drug pretreatment concentration 20 µM
[11] = drug pretreatment concentration 40 µM
[12] = drug pretreatment concentration 80 µM
[13] = drug pretreatment concentration 160 µM
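Wherever IC25 growth inhibition is given: lowest concentration where monotonic median growth AUC falls below 0.75 of drug-free control.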

Compound	community biomass OD578 [1, 9]	community biomass OD578 [1, 10]	community biomass OD578 [1, 11]	community biomass OD578 [1, 12]	community biomass OD578 [1, 13]	IC25 growth inhibition (Streptococcus salivarius) [µM]	IC25 growth inhibition (Clostridium ramosum) [µM]	IC25 growth inhibition (Collinsella aerofaciens) [µM]	IC25 growth inhibition (Bacteroides uniformis) [µM]	IC25 growth inhibition [2] [µM]	IC25 growth inhibition [3] [µM]	IC25 growth inhibition (Shigella flexneri) [µM]	IC25 growth inhibition (Escherichia coli ED1a) [µM]	IC25 growth inhibition (Bacteroides vulgatus) [µM]	IC25 growth inhibition [4] [µM]	IC25 growth inhibition (Clostridium perfringens) [µM]	IC25 growth inhibition [5] [µM]	IC25 growth inhibition (Parabacteroides merdae) [µM]	IC25 growth inhibition [6] [µM]	IC25 growth inhibition (Coprococcus comes) [µM]	IC25 growth inhibition (Bacteroides fragilis NT) [µM]	IC25 growth inhibition (Dorea formicigenerans) [µM]	IC25 growth inhibition [7] [µM]	IC25 growth inhibition (Ruminococcus gnavus) [µM]	IC25 growth inhibition [8] [µM]	IC25 growth inhibition (Eubacterium rectale) [µM]	IC25 growth inhibition (Clostridium bolteae) [µM]	IC25 growth inhibition (Roseburia intestinalis) [µM]	IC25 growth inhibition (Vibrio cholerae) [µM]
CC(CN1c2ccccc2Sc2ccccc21)N(C)C (configuration not stated) [Promethazine]	0.987	1.01	0.99	0.991	0.949	≤ 160	> 160	> 160	> 160	≤ 80	≤ 160	> 160	> 160	≤ 20	> 160	≤ 160	> 160	≤ 10	> 160	≤ 160	≤ 160	≤ 160	> 160	≤ 160	> 160	≤ 160	> 160	≤ 160	≤ 160
CNCCCC1c2ccccc2C=Cc2ccccc21 [Protriptyline]	0.995	1.02	1.01	0.991	0.956	> 160	> 160	> 160	≤ 160	≤ 80	> 160	> 160	> 160	≤ 40	> 160	> 160	≤ 160	> 160	> 160	> 160	> 160	> 160	≤ 160	> 160	> 160	> 160	> 160	> 160	> 160
O=C1NCCN1CCN1CCC(c2cn(-c3ccc(F)cc3)c3ccc(Cl)cc23)CC1 [Sertindole]	1.01	0.991	0.99	0.786	0.451	≤ 20	≤ 80	≤ 40	≤ 20	≤ 40	≤ 160	> 80	> 160	≤ 20	≤ 80	≤ 80	> 80	≤ 40	≤ 40	≤ 80	≤ 40	≤ 20	≤ 40	≤ 40	> 160	≤ 20	≤ 80	≤ 20	≤ 80
